Results published in ChEMBL document CHEMBL1201862, “PubChem BioAssay data set” (2004).
Active and inactive are the calls of the source.

Key:
[1] = cAMP pathway inhibition in counterscreen cell line – TR-FRET cAMP detection, counter-screen for MC4R biased antagonist project, dose response (AID 602305); assay type: functional, cell-based;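 also: U2OS cells stimulated with forskolin near its EC80 as the cAMP inducer; potency is for inhibition of forskolin-stimulated cAMP signaling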
[2] = NIH3T3 cell viability loss – ATP luminescence, mouse fibroblasts, counter-screen, dose response (AID 2010); assay type: functional, cell-based;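 also: cells exposed to compound for about 90 hours before reading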
Jurkat = test: blockers of NF-kB activation in T cells – Jurkat, luciferase reporter, luminescence, B- and T-cell, dose response (AID 489004); assay type: functional, cell-based; conditions: Homo sapiens;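 also: NF-kB luciferase reporter Jurkat cells stimulated with PMA plus ionomycin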
[3] = HPDE-C7 pancreatic duct cell viability loss – fluorescence, HTS (AID 430); assay type: functional, cell-based; conditions: Homo sapiens
[4] = Trypanosoma cruzi growth suppression in host cells – NIH3T3 host cells, beta-gal luminescence, confirmation (AID 2044); assay type: functional, cell-based;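 also: intracellular parasites grown in NIH/3T3 mouse fibroblasts as host cells; luminescent beta-galactosidase reporter signal from transgenic T. cruzi replicating inside host cells; inhibitors lower the luminescence signal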
[5] = HEK-293T viability loss, compound-treated – cell-based, uHTS hits, cytotoxicity control for B/T-cell NF-kB inhibitor project, dose response (AID 489019); assay type: functional;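 also: IC50 reflects cytotoxicity as loss of cell viability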
[6] = viability of HCT116 lacking mutant beta-catenin – cell-based, human colon tumor, dose response (AID 1045); assay type: functional;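 also: HCT116 colon tumor cells with beta catenin knocked out; cells exposed to compound for 60 hours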
Melanocortin receptor 4 = Melanocortin receptor 4 (Homo sapiens, UniProt P32245); test: inhibitors of MC4R cAMP signaling – cell-based, TR-FRET, biased antagonists, dose response (AID 602298); assay type: functional;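 also: antagonist potency against agonist-stimulated cAMP production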
[7] = viability loss of HPDE-C7K cells – cell-based, fluorescence, HTS, primary screen (AID 431); assay type: functional; conditions: Homo sapiens
[8] = viability of PTEN-deleted HCT116 cells – cell-based, HCT116 PTEN knockout, dose response (AID 1047); assay type: functional;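 also: HCT116 colon tumor cells with PTEN knocked out; cells exposed to compound for 60 hours before readout; potency for loss of cell viability measured by luminescence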
[9] = biological target: Voltage-gated inwardly rectifying potassium channel KCNH2 (Homo sapiens, UniProt Q12809); conditions: Potency;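 also: confirmatory quantitative high-throughput screen measuring inhibition of hERG channel activity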
HeLa = test: ATP-based viability loss in HeLa cells – cell-based, CellTiter-Glo luminescence, cherry-pick samples, cytotoxicity control for MITF activator project, dose response (AID 540259); assay type: functional; conditions: Homo sapiens
[10] = biological target: T1, Tyrosine-protein phosphatase non-receptor type 22 (Homo sapiens, UniProt Q9Y2R2); test: inhibition of lymphoid tyrosine phosphatase LYP – biochemical, pCAP fluorogenic substrate, fluorescence, set 3, SAR follow-up (AID 449727); assay type: functional
T1 sequence (Q9Y2R2 whole entry): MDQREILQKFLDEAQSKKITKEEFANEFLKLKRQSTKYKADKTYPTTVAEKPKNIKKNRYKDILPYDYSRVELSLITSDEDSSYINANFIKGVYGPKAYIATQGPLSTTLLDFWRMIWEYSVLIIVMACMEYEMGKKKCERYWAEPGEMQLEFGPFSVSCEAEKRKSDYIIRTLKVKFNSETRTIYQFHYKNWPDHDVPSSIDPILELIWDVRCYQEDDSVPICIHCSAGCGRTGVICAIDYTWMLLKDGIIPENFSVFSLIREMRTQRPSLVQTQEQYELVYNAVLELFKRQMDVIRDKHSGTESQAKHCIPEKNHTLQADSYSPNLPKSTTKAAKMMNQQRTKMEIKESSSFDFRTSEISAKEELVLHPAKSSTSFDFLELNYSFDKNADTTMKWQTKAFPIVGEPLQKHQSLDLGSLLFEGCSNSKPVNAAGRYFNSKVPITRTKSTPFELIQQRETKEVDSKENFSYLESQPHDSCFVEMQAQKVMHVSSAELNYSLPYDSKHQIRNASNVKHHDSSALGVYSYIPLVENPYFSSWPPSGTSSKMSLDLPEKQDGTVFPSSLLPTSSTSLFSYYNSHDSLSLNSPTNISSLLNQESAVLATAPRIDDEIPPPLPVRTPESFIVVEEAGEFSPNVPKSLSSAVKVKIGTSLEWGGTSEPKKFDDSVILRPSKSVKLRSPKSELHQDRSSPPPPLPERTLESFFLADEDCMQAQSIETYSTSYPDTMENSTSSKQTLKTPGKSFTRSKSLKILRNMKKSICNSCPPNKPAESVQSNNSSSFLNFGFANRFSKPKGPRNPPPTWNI

[11] = biological target: T1, Tyrosine-protein phosphatase non-receptor type 22; test: SAR LYP1 Fluorescent Assay using OMFP substrate for In Vitro dose response studies - Set 3. [Related pubchem assays (depositor defined):AID1779, AID1784, AID2140, AID2686]; assay type: functional
[12] = biological target: T2, Tyrosine-protein phosphatase non-receptor type 7 (Homo sapiens, UniProt P35236); test: redox-active compounds inhibiting HePTP phosphatase – biochemical, fluorescence, mechanism study (AID 2068); assay type: functional
T2 sequence (P35236 whole entry): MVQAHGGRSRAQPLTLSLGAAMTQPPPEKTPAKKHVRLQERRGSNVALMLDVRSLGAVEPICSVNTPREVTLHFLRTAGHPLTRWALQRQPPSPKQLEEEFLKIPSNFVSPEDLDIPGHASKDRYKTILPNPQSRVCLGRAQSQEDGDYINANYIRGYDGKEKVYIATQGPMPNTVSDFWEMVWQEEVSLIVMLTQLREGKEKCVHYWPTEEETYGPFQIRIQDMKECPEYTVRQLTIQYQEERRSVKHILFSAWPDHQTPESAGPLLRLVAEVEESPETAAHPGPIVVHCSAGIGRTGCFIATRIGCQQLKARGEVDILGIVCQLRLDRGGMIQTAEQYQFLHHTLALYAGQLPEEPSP

[13] = biological target: T3, Dual specificity protein phosphatase 6 (Rattus norvegicus, UniProt Q64346); assay type: functional;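 also: confirmatory in vitro dose-response testing of MKP-3 inhibition; recombinant His-tagged MKP-3 made in E. coli BL21 with OMFP substrate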
T3 sequence (Q64346 whole entry): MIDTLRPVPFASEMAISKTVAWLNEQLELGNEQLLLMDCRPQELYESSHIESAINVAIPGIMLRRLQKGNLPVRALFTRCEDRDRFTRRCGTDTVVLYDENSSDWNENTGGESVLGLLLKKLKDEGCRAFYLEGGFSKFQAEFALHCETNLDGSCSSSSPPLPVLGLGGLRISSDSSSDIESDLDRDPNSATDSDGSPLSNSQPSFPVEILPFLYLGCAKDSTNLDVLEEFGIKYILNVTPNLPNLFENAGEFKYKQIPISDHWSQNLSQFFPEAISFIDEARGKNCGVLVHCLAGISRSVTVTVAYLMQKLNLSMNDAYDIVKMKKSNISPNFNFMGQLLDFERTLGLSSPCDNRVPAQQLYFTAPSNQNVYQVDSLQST

[14] = biological target: Tyrosine-protein phosphatase non-receptor type 12 (Homo sapiens, UniProt Q05209); test: SAR Selectivity Analysis of small molecule inhibitors of PEST using pCAP in a fluorescence assay. [Related pubchem assays (depositor defined):AID1779, AID1784, AID2135]; assay type: functional
[15] = biological target: Dual specificity protein phosphatase 3 (Homo sapiens, UniProt P51452); test: SAR VHR1 Fluorescent Assay for In Vitro dose response studies Set 2. [Related pubchem assays (depositor defined):AID1654, AID1661, AID1878]; assay type: functional
[16] = biological target: T2, Tyrosine-protein phosphatase non-receptor type 7; test: inhibition of hematopoietic tyrosine phosphatase HePTP – biochemical, set 2, SAR follow-up (AID 449736); assay type: functional

Sequence of Dual specificity protein phosphatase 3 (P51452 whole entry): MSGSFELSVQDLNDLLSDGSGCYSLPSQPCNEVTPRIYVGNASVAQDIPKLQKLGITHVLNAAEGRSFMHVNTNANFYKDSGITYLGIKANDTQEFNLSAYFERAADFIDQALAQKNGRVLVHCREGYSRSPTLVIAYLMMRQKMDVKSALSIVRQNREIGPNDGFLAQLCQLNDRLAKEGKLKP
Sequence of Melanocortin receptor 4 (P32245 whole entry): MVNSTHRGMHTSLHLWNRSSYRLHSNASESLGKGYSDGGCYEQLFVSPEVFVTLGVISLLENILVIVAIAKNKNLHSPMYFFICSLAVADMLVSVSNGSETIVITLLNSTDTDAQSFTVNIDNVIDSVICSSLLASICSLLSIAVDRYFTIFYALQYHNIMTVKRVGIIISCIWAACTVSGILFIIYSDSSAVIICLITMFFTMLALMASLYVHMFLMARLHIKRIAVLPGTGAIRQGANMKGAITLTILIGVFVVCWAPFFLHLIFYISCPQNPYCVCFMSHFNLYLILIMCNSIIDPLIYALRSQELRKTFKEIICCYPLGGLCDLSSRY
Sequence of Tyrosine-protein phosphatase non-receptor type 12 (Q05209 whole entry): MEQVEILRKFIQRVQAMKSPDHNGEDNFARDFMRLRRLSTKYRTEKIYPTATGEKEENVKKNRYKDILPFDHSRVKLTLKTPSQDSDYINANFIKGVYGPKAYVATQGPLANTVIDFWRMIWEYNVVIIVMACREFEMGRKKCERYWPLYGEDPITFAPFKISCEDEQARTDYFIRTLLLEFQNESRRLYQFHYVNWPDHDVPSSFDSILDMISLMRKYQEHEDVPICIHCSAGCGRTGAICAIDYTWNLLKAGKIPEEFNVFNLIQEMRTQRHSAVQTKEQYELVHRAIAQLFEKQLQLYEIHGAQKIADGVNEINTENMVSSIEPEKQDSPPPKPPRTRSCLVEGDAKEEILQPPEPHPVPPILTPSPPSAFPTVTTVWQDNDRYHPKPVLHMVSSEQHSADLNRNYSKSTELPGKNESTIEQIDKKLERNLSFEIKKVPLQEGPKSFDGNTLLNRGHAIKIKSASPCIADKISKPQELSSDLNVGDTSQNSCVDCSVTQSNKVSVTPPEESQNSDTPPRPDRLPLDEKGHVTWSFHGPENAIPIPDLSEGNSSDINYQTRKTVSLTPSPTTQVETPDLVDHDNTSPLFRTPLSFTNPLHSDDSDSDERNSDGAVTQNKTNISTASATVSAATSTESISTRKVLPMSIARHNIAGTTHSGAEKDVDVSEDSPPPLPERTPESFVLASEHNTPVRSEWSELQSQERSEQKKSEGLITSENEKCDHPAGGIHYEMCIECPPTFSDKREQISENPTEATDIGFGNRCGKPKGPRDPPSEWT
Sequence of Voltage-gated inwardly rectifying potassium channel KCNH2 (Q12809 whole entry): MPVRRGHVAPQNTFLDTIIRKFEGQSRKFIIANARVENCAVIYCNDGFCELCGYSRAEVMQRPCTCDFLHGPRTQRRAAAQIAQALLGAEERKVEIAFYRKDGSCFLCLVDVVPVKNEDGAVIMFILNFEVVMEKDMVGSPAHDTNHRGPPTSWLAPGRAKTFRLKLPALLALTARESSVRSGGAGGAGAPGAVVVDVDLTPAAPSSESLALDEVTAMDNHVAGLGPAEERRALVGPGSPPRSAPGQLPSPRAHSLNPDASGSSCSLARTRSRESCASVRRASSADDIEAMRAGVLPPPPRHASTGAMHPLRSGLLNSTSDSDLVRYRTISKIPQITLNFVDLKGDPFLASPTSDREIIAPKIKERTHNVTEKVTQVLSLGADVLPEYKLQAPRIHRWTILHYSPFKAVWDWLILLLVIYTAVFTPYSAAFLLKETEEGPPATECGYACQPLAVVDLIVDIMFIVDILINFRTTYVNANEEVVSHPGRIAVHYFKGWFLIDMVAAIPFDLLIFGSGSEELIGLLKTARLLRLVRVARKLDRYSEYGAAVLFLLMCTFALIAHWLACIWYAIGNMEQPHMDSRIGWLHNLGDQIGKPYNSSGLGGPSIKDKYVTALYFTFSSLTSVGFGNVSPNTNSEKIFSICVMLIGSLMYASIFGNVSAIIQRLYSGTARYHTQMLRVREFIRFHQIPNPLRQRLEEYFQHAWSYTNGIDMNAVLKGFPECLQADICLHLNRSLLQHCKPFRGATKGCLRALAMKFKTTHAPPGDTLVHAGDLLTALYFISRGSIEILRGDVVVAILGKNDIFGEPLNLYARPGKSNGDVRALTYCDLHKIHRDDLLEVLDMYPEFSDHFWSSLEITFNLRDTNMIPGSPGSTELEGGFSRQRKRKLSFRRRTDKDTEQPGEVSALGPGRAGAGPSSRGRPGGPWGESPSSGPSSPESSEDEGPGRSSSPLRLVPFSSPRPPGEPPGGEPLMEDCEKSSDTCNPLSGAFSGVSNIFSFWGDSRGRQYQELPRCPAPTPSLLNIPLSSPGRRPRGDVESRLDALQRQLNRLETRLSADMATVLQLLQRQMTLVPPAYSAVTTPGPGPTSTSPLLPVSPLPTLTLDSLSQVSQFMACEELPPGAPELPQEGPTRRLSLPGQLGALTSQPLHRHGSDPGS

Q: Which results are given for `N=c1c2c(-c3ccccc3)c(-c3ccccc3)n(Cc3ccccc3)c2ncn1CCCn1ccnc1`?
A: IC50 [1]: > 64.6 µM (inactive); EC50 [2]: 7.16 µM (active); IC50 (Jurkat): 8.3 µM (active); EC50 [3]: 5.47 µM (active); EC50 [4]: 2.44 µM (active); IC50 [5]: 43.2 µM (inactive); EC50 [6]: 0.613 µM (active); IC50 (Melanocortin receptor 4): > 64.6 µM (inactive); EC50 [7]: 17 µM (active); EC50 [8]: 0.85 µM (active)

Q: Which AC50 [9] does the source give for `C=CCN1CC[C@]23CCCCC2[C@H]1Cc1ccc(O)cc13` (some centres undefined) here?
A: 2.24 µM (inconclusive)

Q: With `O=C(N/C=C/c1ccccc1)c1ccccc1` as the compound, how does the AC50 (HeLa) read?
A: 206 µM (active)

Q: With `CCOc1cc(/C=C2/S/C(=N\c3ccccc3)NC2=O)cc(I)c1OCC(=O)O` as the compound, how does the IC50 [10] read?
A: 30.2 µM (active)

Q: What about the IC50 [11] of the same compound?
A: 56.6 µM (active)

Q: What about the IC50 [12] of the same compound?
A: 6.03 µM (active)

Q: What about the IC50 [13] of the same compound?
A: > 100 µM (inactive)

Q: What about the IC50 [14] of the same compound?
A: 7.6 µM (active)

Q: What about the IC50 [15] of the same compound?
A: 33.8 µM (active)

Q: And the IC50 [16]?
A: 2.33 µM (active)
